Measurements from patent US20060069132A1, “Azolecarboxamide herbicides” (priority 2004, published 2006).

Legend:
[1] = test system: Surinam grass; assay: Test C pre-/postemergence herbicide test; format: in vivo, Urochloa decumbens
Summary of the method: (§1)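 Emerged plants at the 1- to 4-leaf stage (2–18 cm), or freshly planted seeds, received test chemicals in a non-phytotoxic solvent mixture with surfactant. Response was visually scored against controls after 12 to 14 days in the greenhouse, on a 0 (no effect) to 100 (complete control) scale.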

[2] = test system: lambsquarters; assay: Test C pre-/postemergence herbicide test; format: in vivo, Chenopodium album
Summary of the method: as §1

[3] = test system: redroot pigweed; assay: Test A pre-/postemergence herbicide test; format: in vivo, Amaranthus retroflexus
Summary of the method: (§2)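 Both application timings were run together: directed soil spray over freshly planted seeds in sandy loam, and runoff spray onto 2–10 cm seedlings. Evaluation after ~10 days in greenhouse used a 0–100 visual scale versus untreated controls.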

[4] = test system: large crabgrass; assay: Test C pre-/postemergence herbicide test; format: in vivo, Digitaria sanguinalis
Summary of the method: as §1

[5] = test system: common ragweed; assay: Test C pre-/postemergence herbicide test; format: in vivo, Ambrosia elatior; design: key to Plant response rating, Ragweed: 0 = no effect, 100 = complete control
Summary of the method: as §1

[6] = test system: giant foxtail; assay: Test A pre-/postemergence herbicide test; format: in vivo, Setaria faberi
Summary of the method: as §2

[7] = test system: barnyardgrass; assay: Test B pre-/postemergence herbicide test; format: in vivo, Echinochloa crus-galli
Summary of the method: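 Plants compared with untreated controls 13–15 days post-treatment and given a visual 0–100 injury score. Applications: preemergence to seeds; postemergence at 1- to 4-leaf (2–18 cm); paddy species flooded, 2-leaf stage. Vehicle non-phytotoxic, surfactant included.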

[8] = test system: ducksalad; assay: Test B flooded paddy test; format: in vivo, Heteranthera limosa; conditions: 1000 g ai/ha, scale 0 to 100 (0 no effect, 100 complete control)
Summary of the method: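 Formulated test chemicals went onto postemergence plants measuring 2 to 18 cm, at one to four leaves. For the paddy assay, species had reached two leaves. Scoring took place 13–15 days later by eye, relative to untreated plants, using 0 for no effect up to 100 for full control.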

[9] = test system: yellow nutsedge; assay: Test C pre-/postemergence herbicide test; format: in vivo, Cyperus esculentus
Summary of the method: as §1

[10] = Postemergence, 500 g ai/ha, scale 0 to 100
[11] = Postemergence, 250 g ai/ha, scale 0 to 100, 0 no effect, 100 complete control
[12] = postemergence, 125 g ai/ha, scale 0 to 100
[13] = postemergence, 62 g ai/ha, scale 0 to 100
[14] = Postemergence, 500 g ai/ha, 0 to 100 scale, 0 no effect, 100 complete control
[15] = Postemergence, 2000 g ai/ha, 0 to 100 scale, 0 no effect, 100 complete control
[16] = Preemergence, 2000 g ai/ha, visual rating, 0 to 100 scale (0 no effect, 100 complete control)
[17] = preemergence, 500 g ai/ha, visual injury, 0 to 100 scale (0 no effect, 100 complete control)
[18] = 125 g ai/ha; 0 = no effect, 100 = complete control; preemergence
[19] = postemergence, 125 g ai/ha; visual rating, scale 0 (no effect) to 100 (complete control)
[20] = postemergence, 500 g ai/ha; scale 0 to 100, 0 is no effect, 100 is complete control
[21] = 62 g ai/ha, preemergence, scale 0 to 100
[22] = 125 g ai/ha, scale 0 (no effect) to 100 (complete control), visual, 12 to 14 days, preemergence
[23] = 250 g ai/ha, scale 0-100, preemergence
[24] = Preemergence, 500 g ai/ha, scale 0 to 100, 0 no effect, 100 complete control
[25] = 500 g ai/ha, scale 0 to 100 (0 no effect, 100 complete control), visual, 12 to 14 days, preemergence

CCn1nc(C(C)(C)C)cc1C(=O)Nc1cccc(OC(F)(F)F)c1 [Compound 272]
Surinam Grass plant response rating [1, 10]: 60
Plant response rating, Surinam Grass [1, 11]: 35
Plant response rating, Surinam Grass [1, 12]: 10
Plant response rating, Surinam Grass [1, 13]: 5
Lambsquarters plant response rating [2, 10]: 100
Plant response rating, Lambsquarters [2, 11]: 100
Plant response rating, Lambsquarters [2, 12]: 100
Plant response rating, Lambsquarters [2, 13]: 100
Pigweed plant response rating [3, 14]: 100
Plant response rating, Pigweed [3, 15]: 100
Pigweed plant response rating [3, 16]: 100
Pigweed plant response rating [3, 17]: 100
Crabgrass, Large plant response rating [4, 10]: 95
Plant response rating, Crabgrass, Large [4, 11]: 80
Plant response rating, Crabgrass, Large [4, 12]: 80
Plant response rating, Crabgrass, Large [4, 13]: 40
Ragweed plant response rating [5, 10]: 95
Plant response rating, Ragweed [5, 11]: 80
Plant response rating, Ragweed [5, 12]: 65
Plant response rating, Ragweed [5, 13]: 60
Foxtail, Giant plant response rating [6, 14]: 45
Plant response rating, Foxtail, Giant [6, 15]: 95
Foxtail, Giant plant response rating [6, 16]: 100
Foxtail, Giant plant response rating [6, 17]: 90
Barnyardgrass plant response rating (0 to 100 scale) [7, 18]: 10
Plant response rating, Barnyardgrass ([7]; 500 g ai/ha; visual rating, 0 = no effect, 100 = complete control; preemergence): 90
Barnyardgrass plant response rating [7, 19]: 20
Barnyardgrass plant response rating [7, 20]: 80
Ducksalad plant response rating [8]: 80
Nutsedge, Yellow plant response rating [9, 10]: 0
Plant response rating, Nutsedge, Yellow [9, 11]: 0
Plant response rating, Nutsedge, Yellow [9, 12]: 0
Plant response rating, Nutsedge, Yellow [9, 13]: 0

C=CCNC(=O)c1cccc(NC(=O)c2sc(C(C)(C)C)nc2C)c1 [Compound 202]
Plant response rating, Surinam Grass [1, 21]: 10
Plant response rating, Surinam Grass [1, 22]: 20
Plant response rating, Surinam Grass [1, 23]: 40
Surinam Grass plant response rating [1, 24]: 60
Plant response rating, Lambsquarters [2, 21]: 40
Plant response rating, Lambsquarters [2, 22]: 90
Plant response rating, Lambsquarters [2, 23]: 100
Lambsquarters plant response rating [2, 24]: 100
Pigweed plant response rating [3, 14]: 50
Plant response rating, Pigweed [3, 15]: 90
Pigweed plant response rating [3, 16]: 100
Pigweed plant response rating [3, 17]: 100
Plant response rating, Crabgrass, Large [4, 21]: 80
Plant response rating, Crabgrass, Large [4, 22]: 95
Plant response rating, Crabgrass, Large [4, 23]: 95
Crabgrass, Large plant response rating [4, 24]: 95
Plant response rating, Ragweed [5, 21]: 0
Plant response rating, Ragweed [5, 22]: 80
Plant response rating, Ragweed [5, 23]: 95
Ragweed plant response rating [5, 24]: 95
Foxtail, Giant plant response rating [6, 14]: 30
Plant response rating, Foxtail, Giant [6, 15]: 50
Foxtail, Giant plant response rating [6, 16]: 80
Foxtail, Giant plant response rating [6, 17]: 55
Barnyardgrass plant response rating (0 to 100 scale) [7, 18]: 20
Plant response rating, Barnyardgrass ([7]; 500 g ai/ha; visual rating 0-100, 0 no effect, 100 complete control; preemergence): 90
Barnyardgrass plant response rating [7, 19]: 0
Barnyardgrass plant response rating ([7]; postemergence, 500 g ai/ha; visual rating, scale 0 (no effect) to 100 (complete control)): 0
Ducksalad plant response rating ([8]; visual rating, 13 to 15 days): 60
Plant response rating, Nutsedge, Yellow [9, 21]: 0
Plant response rating, Nutsedge, Yellow [9, 22]: 0
Plant response rating, Nutsedge, Yellow [9, 23]: 0
Nutsedge, Yellow plant response rating [9, 24]: 0

CCNC(=O)c1cccc(NC(=O)c2nn(C(C)(C)CC)nc2CC)c1 [Compound 376]
Plant response rating, Surinam Grass [1, 21]: 40
Plant response rating (0 = no effect, 100 = complete control), Surinam Grass ([1]; 125 g ai/ha, preemergence): 60
Plant response rating, Surinam Grass [1, 23]: 90
Plant response rating, Surinam Grass [1, 25]: 100
Plant response rating, Lambsquarters [2, 21]: 100
Plant response rating (0 = no effect, 100 = complete control), Lambsquarters ([2]; 125 g ai/ha, preemergence): 100
Plant response rating, Lambsquarters [2, 23]: 100
Plant response rating, Lambsquarters [2, 25]: 100
Plant response rating, Crabgrass, Large [4, 21]: 80
Plant response rating (0 = no effect, 100 = complete control), Crabgrass, Large ([4]; 125 g ai/ha, preemergence): 100
Plant response rating, Crabgrass, Large [4, 23]: 100
Plant response rating, Crabgrass, Large [4, 25]: 100
Plant response rating, Ragweed [5, 21]: 0
Plant response rating (0 = no effect, 100 = complete control), Ragweed ([5]; 125 g ai/ha, preemergence): 0
Plant response rating, Ragweed [5, 23]: 50
Plant response rating, Ragweed [5, 25]: 50
Plant response rating (0 to 100 scale), Barnyardgrass ([7]; 125 g ai/ha; 0 is no effect, 100 is complete control; preemergence): 80
Barnyardgrass plant response rating ([7]; 125 g ai/ha; visual rating, scale 0 (no effect) to 100 (complete control); postemergence): 10
Barnyardgrass plant response rating [7, 20]: 40
Ducksalad plant response rating [8]: 90
Plant response rating, Nutsedge, Yellow [9, 21]: 5
Plant response rating (0 = no effect, 100 = complete control), Nutsedge, Yellow ([9]; 125 g ai/ha, preemergence): 30
Plant response rating, Nutsedge, Yellow [9, 23]: 40
Plant response rating, Nutsedge, Yellow [9, 25]: 60
